The supplement of paper PMC10307832

Tests used:
Test in all cases: relative viability (nuclei count vs DMSO), 5 days (fraction); higher = more cells survive
XMD14-99 + Alpelisib = compound: CN1CCN(CC1)C2=CC(=C(C=C2)NC3=NC(=C(S3)C(=O)C4=C(C=CC=C4Cl)Cl)N)OC [XMD14-99] + Cc1nc(NC(=O)N2CCC[C@H]2C(N)=O)sc1-c1ccnc(C(C)(C)C(F)(F)F)c1 [Alpelisib] (partner 2 µM)
Procedure, shortened: (§1)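 Relative viability divides the nuclei count in treated wells by that in vehicle wells. Lung cancer cell lines were seeded in 1536-well plates, dosed by pin tool the next day, and fixed and stained after 5 days in one step with final 0.05% Triton X-100, 1% formaldehyde and 1 ug/ml Hoechst. Dosing was a single drug or a fixed anchor-drug dose plus five library-drug doses (not always all listed) in √10 steps, and values are medians of duplicate plates imaged at 4×.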

AZD1208 + Alpelisib = compound: N[C@@H]1CCCN(c2c(/C=C3\SC(=O)NC3=O)cccc2-c2ccccc2)C1 [AZD1208] + Cc1nc(NC(=O)N2CCC[C@H]2C(N)=O)sc1-c1ccnc(C(C)(C)C(F)(F)F)c1 [Alpelisib] (partner 2 µM)
Procedure, shortened: as §1

XMD14-99 + Decitabine = compound: CN1CCN(CC1)C2=CC(=C(C=C2)NC3=NC(=C(S3)C(=O)C4=C(C=CC=C4Cl)Cl)N)OC [XMD14-99] + Nc1ncn([C@H]2C[C@H](O)[C@@H](CO)O2)c(=O)n1 [Decitabine] (partner 2 µM)
Procedure, shortened: as §1

AZD1208 + Lapatinib = compound: N[C@@H]1CCCN(c2c(/C=C3\SC(=O)NC3=O)cccc2-c2ccccc2)C1 [AZD1208] + CS(=O)(=O)CCNCc1ccc(-c2ccc3ncnc(Nc4ccc(OCc5cccc(F)c5)c(Cl)c4)c3c2)o1 [Lapatinib] (partner 2 µM)
Procedure, shortened: as §1

Cell Line | relative viability (XMD14-99 + Alpelisib; first compound 0.08 µM) | relative viability (XMD14-99 + Alpelisib; first compound 0.8 µM) | relative viability (XMD14-99 + Alpelisib; first compound 2.53 µM) | relative viability (XMD14-99 + Alpelisib; first compound 8 µM) | relative viability (AZD1208 + Alpelisib; first compound 0.08 µM) | relative viability (AZD1208 + Alpelisib; first compound 0.253 µM) | relative viability (AZD1208 + Alpelisib; first compound 0.8 µM) | relative viability (AZD1208 + Alpelisib; first compound 2.53 µM) | relative viability (AZD1208 + Alpelisib; first compound 8 µM) | relative viability (XMD14-99 + Decitabine; first compound 0.08 µM) | relative viability (XMD14-99 + Decitabine; first compound 0.8 µM) | relative viability (XMD14-99 + Decitabine; first compound 2.53 µM) | relative viability (XMD14-99 + Decitabine; first compound 8 µM) | relative viability (AZD1208 + Lapatinib; first compound 0.08 µM) | relative viability (AZD1208 + Lapatinib; first compound 0.253 µM) | relative viability (AZD1208 + Lapatinib; first compound 0.8 µM) | relative viability (AZD1208 + Lapatinib; first compound 2.53 µM) | relative viability (AZD1208 + Lapatinib; first compound 8 µM)
NCI-H358 | 0.751 | 0.841 | 0.715 | 0.304 | 0.64 | 0.709 | 0.546 | 0.592 | 0.569 | 0.231 | 0.187 | 0.203 | 0.174 | 0.343 | 0.44 | 0.38 | 0.36 | 0.35
NCI-H460 | 0.36 | 0.419 | 0.431 | 0.197 | 0.502 | 0.408 | 0.458 | 0.46 | 0.409 | 0.461 | 0.486 | 0.495 | 0.385 | 1.03 | 1.71 | 0.867 | 1.01 | 0.964
NCI-H520 | 0.83 | 0.843 | 0.83 | 0.707 | 0.848 | 0.805 | 0.641 | 0.896 | 0.802 | 0.465 | 0.468 | 0.483 | 0.44 | 0.805 | 1.07 | 0.806 | 0.83 | 0.629
NCI-H596 | 0.503 | 0.587 | 0.477 | 0.568 | 0.387 | 0.573 | 0.351 | 0.376 | 0.353 | 1.03 | 0.943 | 0.858 | 0.964 | 1.05 | 1.1 | 0.967 | 0.984 | 0.835
NCI-H647 | 1.05 | 1.07 | 0.937 | 0.933 | 1.03 | 1.28 | 1.06 | 1.06 | 1.01 | 0.378 | 0.41 | 0.475 | 0.364 | 1.04 | 1.58 | 1.04 | 0.97 | 0.742
NCI-H650 | 1.15 | 0.982 | 0.922 | 0.922 | 1.11 | 1.15 | 1.07 | 0.967 | 0.823 | 0.272 | 0.318 | 0.292 | 0.319 | 1.06 | 0.771 | 1.06 | 0.648 | 0.817
NCI-H661 | 0.798 | 0.564 | 0.594 | 0.356 | 0.706 | 0.815 | 0.529 | 0.724 | 0.665 | 0.562 | 0.55 | 0.502 | 0.44 | 0.397 | 0.425 | 0.396 | 0.383 | 0.46
NCI-H727 | 0.553 | 0.513 | 0.447 | 0.407 | 0.542 | 0.543 | 0.496 | 0.497 | 0.387 | 0.881 | 0.805 | 0.857 | 0.599 | 0.597 | 0.754 | 0.755 | 0.672 | 0.59
NCI-H838 | 1 | 0.928 | 0.904 | 0.604 | 0.962 | 1.13 | 0.887 | 0.959 | 0.882 | 0.477 | 0.452 | 0.426 | 0.436 | 0.988 | 1.17 | 0.856 | 0.936 | 0.86
NCI-H1355 | 0.928 | 0.893 | 0.68 | 0.657 | 0.826 | 0.832 | 0.704 | 0.771 | 0.64 | 0.381 | 0.339 | 0.343 | 0.346 | 1.04 | 0.995 | 0.777 | 1.09 | 0.71
NCI-H1395 | 1.07 | 1.17 | 1.05 | 0.883 | 0.925 | 1.07 | 1.1 | 1.24 | 0.851 | 0.696 | 0.7 | 0.712 | 0.653 | 1.12 | 0.918 | 0.945 | 1.1 | 0.812
NCI-H1437 | 0.881 | 0.804 | 0.787 | 0.671 | 0.927 | 0.981 | 0.796 | 0.827 | 0.504 | 0.621 | 0.469 | 0.458 | 0.417 | 0.833 | 1.04 | 0.69 | 0.775 | 0.691
NCI-H1651 | 0.841 | 0.836 | 1.09 | 0.917 | 0.848 | 0.921 | 0.785 | 0.732 | 0.677 | 0.683 | 0.546 | 0.601 | 0.509 | 0.805 | 0.784 | 0.717 | 0.643 | 0.62
NCI-H1666 | 0.866 | 0.94 | 0.805 | 0.699 | 0.815 | 0.821 | 0.577 | 0.765 | 0.894 | 0.81 | 0.628 | 0.686 | 0.567 | 0.442 | 0.574 | 0.452 | 0.389 | 0.456
NCI-H1734 | 0.659 | 0.704 | 0.738 | 0.584 | 0.614 | 0.619 | 0.557 | 0.556 | 0.434 | 0.505 | 0.494 | 0.477 | 0.477 | 1.01 | 1.06 | 1.01 | 0.822 | 0.627
NCI-H1755 | 0.945 | 0.908 | 0.886 | 0.648 | 0.933 | 1.02 | 0.858 | 0.859 | 0.741 | 0.761 | 0.68 | 0.698 | 0.709 | 1.05 | 1.09 | 1.01 | 0.978 | 0.848
NCI-H1792 | 0.688 | 0.734 | 0.627 | 0.474 | 0.629 | 0.742 | 0.579 | 0.608 | 0.535 | 0.497 | 0.499 | 0.549 | 0.326 | 0.874 | 0.999 | 0.885 | 0.908 | 0.757
